Data published in ChEMBL document CHEMBL3885861, “Open TG-GATES”.

Organism: Rattus norvegicus
Assay: Open TG-GATES - Regimen: Single
Type: toxicity, organism-based, Sprague-Dawley
Design: regimen Single, gender Male, age 6 weeks
Settings: in vivo, po, 30 mg/kg, route gavage, dose level Low; for APTT / Bas / Eos / Fbg / Hb / Ht / Lym / MCH / MCHC / MCV / Mono / Neu / PT / Plat / RBC / Ret / WBC: tissue Blood; for KIDNEY_L / KIDNEY_R / KIDNEY_TOTAL: tissue Kidney; for LIVER: tissue Liver; for A/G / ALP / ALT / AST / BUN / CRE / Ca / Cl / DBIL / GLC / IP / K / LDH / Na / PL / RALB / TBIL / TC / TG / TP / gamma-GTP: tissue Plasma

Question: Which results are given for `C[C@]12CCC(=O)C=C1CC[C@@H]1[C@@H]2CC[C@@]2(C)[C@H]1CC[C@]2(C)O` [METHYLTESTOSTERONE]?
Answer: TERMINAL_BW (3 h): 203.4 g; APTT (3 h): 15.6 s; Bas (3 h): 0%; Eos (3 h): 1%; Fbg (3 h): 292.4 mg/dL; Hb (3 h): 12.7 g/dL; Ht (3 h): 37.1%; Lym (3 h): 77%; MCH (3 h): 21.2 pg; MCHC (3 h): 34.2%; MCV (3 h): 61.9 fL; Mono (3 h): 3.8%; Neu (3 h): 17%; PT (3 h): 13.1 s; Plat (3 h): 105.6 x10_4/uL; RBC (3 h): 599 x10_4/ul; Ret (3 h): 8.5%; WBC (3 h): 69.9 x10_2/uL; KIDNEY_L (3 h): 0.9 g; KIDNEY_R (3 h): 0.9 g; KIDNEY_TOTAL (3 h): 1.8 g; LIVER (3 h): 8.6 g; A/G (3 h): 0.9; ALP (3 h): 1715.8 IU/L; ALT (3 h): 48.8 IU/L; AST (3 h): 82.6 IU/L; BUN (3 h): 9.8 mg/dL; CRE (3 h): 0.2 mg/dL; Ca (3 h): 11 mg/dL; Cl (3 h): 106 meq/L; DBIL (3 h): 0.012 mg/dL; GLC (3 h): 181.8 mg/dL; IP (3 h): 9.1 mg/dL; K (3 h): 4.4 meq/L; LDH (3 h): 76.6 IU/L; Na (3 h): 141.4 meq/L; PL (3 h): 131 mg/dL; RALB (3 h): 2.5 g/dL; TBIL (3 h): 0.048 mg/dL; TC (3 h): 72.8 mg/dL; TG (3 h): 41.8 mg/dL; TP (3 h): 5.4 g/dL; gamma-GTP (3 h): 1 IU/L; TERMINAL_BW (6 h): 202.1 g; APTT (6 h): 17 s; Bas (6 h): 0.2%; Eos (6 h): 1%; Fbg (6 h): 281 mg/dL; Hb (6 h): 13.2 g/dL; Ht (6 h): 38.6%; Lym (6 h): 74.8%; MCH (6 h): 21.4 pg; MCHC (6 h): 34.1%; MCV (6 h): 62.9 fL; Mono (6 h): 3%; Neu (6 h): 20.8%; PT (6 h): 13.3 s; Plat (6 h): 112.5 x10_4/uL; RBC (6 h): 614.8 x10_4/ul; Ret (6 h): 8.1%; WBC (6 h): 69.8 x10_2/uL; KIDNEY_L (6 h): 0.9 g; KIDNEY_R (6 h): 0.9 g; KIDNEY_TOTAL (6 h): 1.8 g; LIVER (6 h): 8 g; A/G (6 h): 0.9; ALP (6 h): 1451.8 IU/L; ALT (6 h): 44.8 IU/L; AST (6 h): 77.4 IU/L; BUN (6 h): 9.4 mg/dL; CRE (6 h): 0.2 mg/dL; Ca (6 h): 10.7 mg/dL; Cl (6 h): 107.2 meq/L; DBIL (6 h): 0.01 mg/dL; GLC (6 h): 181 mg/dL; IP (6 h): 10 mg/dL; K (6 h): 4.2 meq/L; LDH (6 h): 68.2 IU/L; Na (6 h): 142.2 meq/L; PL (6 h): 120.8 mg/dL; RALB (6 h): 2.6 g/dL; TBIL (6 h): 0.042 mg/dL; TC (6 h): 70.6 mg/dL; TG (6 h): 32.8 mg/dL; TP (6 h): 5.4 g/dL; gamma-GTP (6 h): 1.2 IU/L; TERMINAL_BW (9 h): 203.1 g; APTT (9 h): 16.9 s; Bas (9 h): 0%; Eos (9 h): 1%; Fbg (9 h): 287.4 mg/dL; Hb (9 h): 13.2 g/dL; Ht (9 h): 38.3%; Lym (9 h): 77.2%; MCH (9 h): 21.4 pg; MCHC (9 h): 34.6%; MCV (9 h): 61.7 fL; Mono (9 h): 2.6%; Neu (9 h): 18.4%; PT (9 h): 13.3 s; Plat (9 h): 113.2 x10_4/uL; RBC (9 h): 620.8 x10_4/ul; Ret (9 h): 8.2%; WBC (9 h): 66.5 x10_2/uL; KIDNEY_L (9 h): 0.9 g; KIDNEY_R (9 h): 0.9 g; KIDNEY_TOTAL (9 h): 1.7 g; LIVER (9 h): 7.8 g; A/G (9 h): 0.9; ALP (9 h): 1527.6 IU/L; ALT (9 h): 39.2 IU/L; AST (9 h): 74.6 IU/L; BUN (9 h): 8.8 mg/dL; CRE (9 h): 0.2 mg/dL; Ca (9 h): 10.6 mg/dL; Cl (9 h): 107.6 meq/L; DBIL (9 h): 0.01 mg/dL; GLC (9 h): 185.2 mg/dL; IP (9 h): 10.9 mg/dL; K (9 h): 3.9 meq/L; LDH (9 h): 65.6 IU/L; Na (9 h): 142.8 meq/L; PL (9 h): 120 mg/dL; RALB (9 h): 2.6 g/dL; TBIL (9 h): 0.054 mg/dL; TC (9 h): 68.4 mg/dL; TG (9 h): 26 mg/dL; TP (9 h): 5.4 g/dL; gamma-GTP (9 h): 1.6 IU/L; TERMINAL_BW (24 h): 208 g; APTT (24 h): 19.7 s; Bas (24 h): 0%; Eos (24 h): 0.8%; Fbg (24 h): 277 mg/dL; Hb (24 h): 13 g/dL; Ht (24 h): 37.9%; Lym (24 h): 77%; MCH (24 h): 21 pg; MCHC (24 h): 34.2%; MCV (24 h): 61.3 fL; Mono (24 h): 2.8%; Neu (24 h): 19%; PT (24 h): 13.1 s; Plat (24 h): 120.3 x10_4/uL; RBC (24 h): 619.4 x10_4/ul; Ret (24 h): 7.5%; WBC (24 h): 80.6 x10_2/uL; KIDNEY_L (24 h): 0.9 g; KIDNEY_R (24 h): 0.9 g; KIDNEY_TOTAL (24 h): 1.8 g; LIVER (24 h): 9.4 g; A/G (24 h): 0.9; ALP (24 h): 1796.2 IU/L; ALT (24 h): 55.8 IU/L; AST (24 h): 81.2 IU/L; BUN (24 h): 13.8 mg/dL; CRE (24 h): 0.2 mg/dL; Ca (24 h): 11.1 mg/dL; Cl (24 h): 106.8 meq/L; DBIL (24 h): 0.016 mg/dL; GLC (24 h): 184.6 mg/dL; IP (24 h): 8.3 mg/dL; K (24 h): 4.1 meq/L; LDH (24 h): 82 IU/L; Na (24 h): 141.4 meq/L; PL (24 h): 134.2 mg/dL; RALB (24 h): 2.7 g/dL; TBIL (24 h): 0.028 mg/dL; TC (24 h): 68.2 mg/dL; TG (24 h): 84.2 mg/dL; TP (24 h): 5.7 g/dL; gamma-GTP (24 h): 1 IU/L
